According to PMC11652885, “Natural volatiles preventing mosquito biting: An integrated screening platform for accelerated discovery of ORco antagonists” (The Journal of Biological Chemistry, 2024):

Test system: Aedes albopictus
Experiment: Hand in a cage repellence bioassay (human hand landing counts)
Assay type: in vivo
Conditions: dose 50 nmole/cm^2; preliminary tests, data not shown

Q: How did the “repellence index (RI)” value turn out when `CCCCC/C=C\CCO` [compound 54, (Z)-3-Nonen-1-ol] was run?
A: Its value is 30%-50%.

Q: Which “repellence index (RI)” value does the source give for `CC(C)=CCC[C@](C)(O)[C@@H]1CC=C(C)CC1` [compound 77, α-Bisabolol] here?
A: The value was 30%-50%.

Q: `CCCC=CC=CC=O` [compound 39, 2,4-Octadienal] was tested. Which “repellence index (RI)” value did it give?
A: The value was 30%-50%.

Q: Which “repellence index (RI)” value does the source give for `CC1(C)C2CC3OC3(C)C1C2` (stereo not drawn) [compound 62, α-Pinene oxide] here?
A: Its value is 30%-50%.

Q: For `Cc1ccc2ccccc2n1` [compound 66, 2-Methylquinoline], which “repellence index (RI)” value is on record?
A: Its value is “high activities”.

Q: `CC1(C)C2CCC1(C)C(O)C2` (centres unmarked) [compound 64, Borneol] was tested. Which “repellence index (RI)” value did it give?
A: Its value is “high activities”.

Q: How did the “repellence index (RI)” value turn out when `CC(C)C/C=C1/C(=O)OCC1C` (centres unmarked) [compound 98, (E)-3-Methyl-2-(3-methylbutyliden)-4-butanolide] was run?
A: The value was “high activities”.

Q: `CC(C)CCCCCCCCC=CCC#N` [compound 83, 13-Methyltetradec-3-ene nitrile] was tested. Which “repellence index (RI)” value did it give?
A: The value was “high activities”.
